Measured values taken from patent publication US8877745B2, “CCR2 receptor antagonists, method for producing the same, and use thereof as medicaments” (Boehringer Ingelheim International GmbH, priority 2010, dated 2014).

Biological target: T1, CCR2 (Homo sapiens, UniProt P41597)
T1 construct: Membranes were prepared from THP-1 cells; endogenous in cells; host or cells: THP-1 (human acute monocytic leukaemia cells), membrane preparation
Assay: CCR2 receptor membrane binding assay ([125I]MCP-1, THP-1 cell membranes, SPA beads)
Conditions: THP-1 membranes, [125I]MCP-1, bound radioactivity determined after 8 h; read-out: hKi
Outline: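 SPA competition binding using THP-1 membranes on WGA-PVT beads in 25 mM HEPES pH 7.2, 5 mM MgCl2, 0.5 mM CaCl2, 0.2% BSA, 1% DMSO final. [125I]MCP-1 (ca. 25000 cpm) as tracer; bound radioactivity counted after 8 h. Ki by iterative mass-action fitting.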

T1 sequence (P41597 whole entry): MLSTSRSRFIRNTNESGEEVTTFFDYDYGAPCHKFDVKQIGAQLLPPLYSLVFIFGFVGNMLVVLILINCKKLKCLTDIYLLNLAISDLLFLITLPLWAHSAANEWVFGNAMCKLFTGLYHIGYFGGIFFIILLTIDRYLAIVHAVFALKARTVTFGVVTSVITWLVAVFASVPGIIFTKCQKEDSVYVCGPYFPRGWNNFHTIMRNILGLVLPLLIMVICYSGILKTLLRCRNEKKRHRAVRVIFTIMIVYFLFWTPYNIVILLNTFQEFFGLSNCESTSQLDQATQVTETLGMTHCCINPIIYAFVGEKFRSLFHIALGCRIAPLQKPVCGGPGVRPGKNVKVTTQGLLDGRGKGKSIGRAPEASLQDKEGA

Structure (SMILES) | Ki
COc1ccc(C2CCN(c3ncnc(C(=O)N4CCC(N5CCC(N(C)S(C)(=O)=O)CC5)CC4)c3C)CC2)cc1 [Example 21] | 4410 nM
COc1ccc(C2CCN(c3ncnc(C(=O)N4CCC(NC5CCOCC5OC)CC4)c3C)CC2)cc1 (stereo not shown) [Example 14] | 1610 nM
COC1COCCC1NC1CCN(C(=O)c2ncnc(N3CCc4ccc(C#N)cc4C3)c2C)CC1 (stereo not shown) [Example 55] | 235 nM
COC1COCCC1NC1CCN(C(=O)c2ncnc(N3CCC4(CCc5ccccc54)CC3)c2C)CC1 (stereo not shown) [Example 62] | 590 nM
Cc1c(C(=O)N2CCC(N3CCC(N(C)S(C)(=O)=O)CC3)CC2)ncnc1N1CCC(c2ccc(C(F)(F)F)cc2)C1 (stereo not shown) [Example 45] | 1170 nM
COC1COCCC1NC1CCN(C(=O)c2ncnc(N3CCCC(c4cccc(C(F)(F)F)c4)C3)c2C)CC1 (stereo not shown) [Example 9] | 2150 nM
COc1c(C(=O)N2CCC(N[C@@H]3CCOC[C@@H]3OC)CC2)ncnc1N1CCc2ccc(C(F)(F)F)cc2C1 [Example 67] | 21 nM
COC1COCCC1NC1CCN(C(=O)c2ncnc(N3CCc4cccc(C(F)(F)F)c4C3)c2C)CC1 (stereo not shown) [Example 2] | 507 nM
Cc1c(C(=O)N2CCN(C)CC2)ncnc1N1CCc2ccc(C(F)(F)F)cc2C1 [Example 70] | 3560 nM
Cc1c(C(=O)N2CCC(N3CCC(N(C)S(C)(=O)=O)CC3)CC2)ncnc1N1CCc2ccc(C(F)(F)F)cc2C1 [Example 1] | 15 nM
CO[C@@H]1COCC[C@@H]1NC1CCN(C(=O)c2ncnc(N3CCc4ccc(OC(F)(F)F)cc4C3)c2C)CC1 [Example 65] | 16 nM
COC1COCCC1NC1CCN(C(=O)c2ncnc(N3CCC(c4ccc(Cl)cc4)C3)c2C)CC1 (stereo not shown) [Example 53] | 172 nM
Cc1c(C(=O)N2CCC(C(N)=O)(N3CCCCC3)CC2)ncnc1N1CCc2ccc(C(F)(F)F)cc2C1 [Example 78] | 1250 nM
Cc1c(C(=O)N2CCC(N3CCC(N(C)S(C)(=O)=O)CC3)CC2)ncnc1N1CCC(c2ccccc2C(F)(F)F)CC1 [Example 25] | 657 nM
COC1COCCC1NC1CCN(C(=O)c2ncnc(N3CCC(c4cccc(C(F)(F)F)c4)C3)c2C)CC1 (stereo not shown) [Example 52] | 270 nM
Cc1c(C(=O)N2CCC(N3CCCCC3)CC2)ncnc1N1CCc2ccc(C(F)(F)F)cc2C1 [Example 80] | 101 nM
COC1COCCC1NC1CCN(C(=O)c2ncnc(N3CCC(c4ccc(Cl)cc4)CC3)c2C)CC1 (stereo not shown) [Example 18] | 331 nM
COC1COCCC1NC1CCN(C(=O)c2ncnc(N3CCC(c4cccc(C)c4)CC3)c2C)CC1 (stereo not shown) [Example 15] | 732 nM
Cc1c(C(=O)N2CCC(N3CCC(N(C)S(C)(=O)=O)CC3)CC2)ncnc1N1CCC2(CCc3ccccc32)CC1 [Example 6] | 1640 nM
CO[C@@H]1COCC[C@@H]1NC1CCN(C(=O)c2ncnc(N3CCc4ccc(Cl)cc4C3)c2C)CC1 [Example 66] | 22 nM
COC1COCCC1NC1CCN(C(=O)c2ncnc(N3CCC(c4ccccc4)CC3)c2C)CC1 (stereo not shown) [Example 16] | 1510 nM

Results, then the compound that gave them:

Ki | Structure (SMILES)
12 nM | COC1COCCC1NC1CCN(C(=O)c2ncnc(N3CCc4ccc(C(C)C)cc4C3)c2C)CC1 (stereo not shown) [Example 62k]
17 nM | CO[C@@H]1COCC[C@@H]1NC1CCN(C(=O)c2ncnc(N3CCc4ccc(C)cc4C3)c2C)CC1 [Example 69f]
13 nM | CO[C@H]1COCC[C@H]1NC1CCN(C(=O)c2ncnc(N3CCc4ccc(Br)cc4C3)c2C)CC1 [Example 69z]
12 nM | CO[C@@H]1COCC[C@@H]1NC1CCN(C(=O)c2ncnc(N3CCC4(CCc5cc(Cl)ccc5O4)CC3)c2C)CC1 [Example 62an]
16 nM | COC1COCCC1NC1CCN(C(=O)c2ncnc(N3CCC4(CCc5cc(Br)ccc5O4)CC3)c2C)CC1 (stereo not shown) [Example 62ab]
336 nM | COC1COCCC1NC1CCN(C(=O)c2ncnc(N3CCN(c4ccc5c(c4)OCCO5)CC3)c2C)CC1 (stereo not shown) [Example 62ad]
35 nM | COC1COCCC1NC1CCN(C(=O)c2ncnc(N3CCN(c4c(Cl)cncc4Cl)CC3)c2C)CC1 (stereo not shown) [Example 62aj]
12 nM | COC1COCCC1NC1CCN(C(=O)c2ncnc(N3CCN(c4ccc(Cl)cc4C)CC3)c2C)CC1 (stereo not shown) [Example 62y]
8 nM | COc1nc(C(=O)N2CCC(NC3CCOCC3F)CC2)c(C)c(N2CCc3ccc(C(F)(F)F)cc3C2)n1 (stereo not shown) [Example 69s]
28 nM | COc1c(C(=O)N2CCC(N[C@@H]3CCOC[C@@H]3OC)CC2)ncnc1N1CCc2ccc(OC(F)(F)F)cc2C1 [Example 69c]
1080 nM | COC1COCCC1NC1CCN(C(=O)c2ncnc(N3CCC4CC4(c4ccc(Br)cc4)C3)c2C)CC1 (stereo not shown) [Example 62o]
983 nM | COC1COCCC1NC1CCN(C(=O)c2ncnc(N3CCC4(CC3)CC(=O)c3ccccc3O4)c2C)CC1 (stereo not shown) [Example 62h]
30 nM | COC1COCCC1NC1CCN(C(=O)c2ncnc(N3CCN(c4ccccc4C(F)(F)F)CC3)c2C)CC1 (stereo not shown) [Example 62z]
